SMILES strings stand for the structures. Values joined by “and” are separate entries in the source; they are usually repeats but may differ in a detail not shown here. Equal entries are not always repeated.

The assay relates to NCI/ADR-RES complex spheroid viability. As to the kind of experiment: Anticancer human tumor NCI/ADR-RES cell line growth inhibition.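 On all read-outs here: spheroids exposed to compounds for 7 days.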 The following applies: for viability, T/C: stronger effect = lower value. The source says:
Multicellular complex tumor spheroid response to LSD1 Inhibitor Iadademstat in combination with a variety of drugs and investigational agents in selected tumor cell lines
The current study was undertaken to assess response to LSD1 inhibitors in combination with standard-of-care drugs and investigational agents in solid tumor complex spheroid models as well as in the K-562 leukemia. Complex spheroids include a stromal component modeled by human endothelial cells (HUVEC) and fibroblasts modeled by human mesenchymal stem cells (MSCs). The concentration ranges selected for each drug and investigational agent were based upon clinically achievable concentrations if the clinical Cmax of the agent was known.
Compounds. The drugs and investigational agents used in this study are listed on Table 1. All of the agents used, including staurosporine (NSC755774) and gemcitabine (NSC613327), were obtained from the Developmental Therapeutics Program, NCI. FDA-approved anticancer drugs are available from the NCI at http://dtp.nci.nih.gov/branches/dscb/oncology_drugset_explanation.html. Drugs and investigational agents were >95% pure by proton nuclear magnetic resonance (NMR) and liquid chromatography/mass spectrometry (LC/MS). Stock solutions were prepared at 400x in DMSO, stored at -70 degrees C, and diluted in fresh medium prior to their use. The final concentration of DMSO in cell culture wells never exceeded 0.25% (v/v). The FDA-approved anticancer drug set is available from the Developmental Therapeutics Program at https://dtp.cancer.gov/organization/dscb/obtaining/available_plates.htm. All drugs and investigational agents were tested over a range starting from a high concentration at or near the clinical Cmax and decreasing in half-log increments. If the clinical Cmax for an agent had not been determined, the highest concentration tested was 10 microM.
Cell Lines. The patient-derived cancer cell (PDC) lines: 292921-168-R-J2-PDC, K24384-001-R-PDC, and 521955-158-R2-J5-PDC pancreatic carcinomas, 556581-035-R-J1 ovarian carcinoma, 324938-238-R-J1-PDC, 855422-203-R-J1-PDC and 883617-216-R-J1-PDC urothelial bladder carcinomas, 743489-274-T-PDC renal cell carcinoma, 138582-R-J1 Merkel cell tumor, K60290-347-R-J1 and K57222-313-R-J1-PDC glioblastomas, 653999-131-R-J2-PDC, LG0703-F948-PDC, and 349418-098-R-PDC non-small cell lung carcinomas, 885512-296-R-J2-PDC, 171881-019-R-J1-PDC breast carcinomas and 186277-243-T-J2-PDC and 233499-124-R-J2-PDC colon carcinomas were obtained from the NCI Patient-Derived Models Repository (PDMR, https://pdmr.cancer.gov). The established cell lines NCI/ADR-RES (RRID:CVCL_14520 and OVCAR-5 (RRID:CVCL_1628) ovarian carcinomas, 786-O (RRID:CVCL_1051) and A498 (RRID:CVCL_A498) renal cell carcinoma, NCI-H211 (ATCC, cat. CRL-5824; RRID:CVCL_1529), NCI-H196 (ATCC, cat. CRL-5823, RRID:CVCL_1509), SW 1271 (ATCC, cat. CRL-2177, RRID:CVCL_1716) and NCI-H1876 (ATCC, cat. CRL-5902, RRID:CVCL_1503) small cell lung carcinomas, MDA-MB-231 (RRID:CVCL_0062) and MDA-MB-468 (RRID:CVCL_0419)breast carcinomas (10-12). Pooled donor human umbilical vein endothelial cells (HUVEC, Lonza, cat. CC-2519) and human mesenchymal stem cells (hMSC, Lonza, cat. PT-2501) were purchased from Lonza (Walkersville, MD).
Cell Culture. All cells were maintained in an incubator at 37 degrees C and 5% CO2 with 95% humidity. The PDC lines were cultured according to standard operating procedures established by the NCI PDMR (https://pdmr.cancer.gov). Briefly all PDCs were thawed and cultured in Matrigel-coated flasks prepared with a working solution of 1X Ham's F-12 nutrient mix, without supplementation (Invitrogen, Waltham, MA, cat. 11765054), 100 U/mL penicillin-streptomycin (Invitrogen, cat. 15140122), and 2.5% Matrigel (Corning Inc., Corning, NY, cat. 354248) for the first three passages. […]

Regarding `CC(C)c1c(-c2ccccc2)nc2c(C#N)c[nH]n2c1=O`, the viability, T/C is 103% and 102% (compound 0.0316 µM); 99.6% and 94.7% (compound 0.1 µM); 96.5% and 96.3% (compound 0.316 µM); 104% (compound 1 µM); 98.6% and 93.1% (compound 3.16 µM); 94.6% and 96.8% (compound 10 µM). In addition, the 50% inhibitory concentration (IC50) (curve of compound) is over 10000 nM.

For the compound `CC1COCCN1c1cc(C2(S(C)(=N)=O)CC2)nc(-c2ccnc3[nH]ccc23)n1` (stereo not drawn), the viability, T/C was 101% and 106% (compound 0.0316 µM); 96% and 110% (compound 0.1 µM); 93.8% and 98.5% (compound 0.316 µM); 91.3% and 86.3% (compound 1 µM); 72% and 71.1% (compound 3.16 µM); 57.2% and 43.1% (compound 10 µM). In addition, where the note is “curve of compound”, the IC50 is > 10000 nM and 7480 nM.

With `COc1ccc([C@@H](O)c2cc(-c3ncnc4cc(N5CCOCC5)ccc34)c(F)cc2Cl)nn1`, the viability, T/C was 106% (compound 0.0316 µM); 99.9% and 99.3% (compound 0.1 µM); 87.1% and 94.3% (compound 0.316 µM); 77.2% and 72.6% (compound 1 µM); 52.9% and 49.2% (compound 3.16 µM); 28.3% and 28% (compound 10 µM). In addition, the half-maximal inhibitory concentration (IC50) (curve of compound) was 3810 nM and 2980 nM.

For the compound `NC1CC1c1ccc(-c2cccc(O)c2)cc1` (stereo not drawn), the viability, T/C reads like this: (compound 0.1 µM) 99.3% and 104%; (compound 0.316 µM) 105% [middle of 24 runs]; (compound 1 µM) 99.4% [middle of 24 runs]; (compound 3.16 µM) 97.5% [middle of 25 runs]; (compound 10 µM) 86.9% [middle of 25 runs]. Moreover, under “compound alone, run of 12/07/2021”, the half-inhibitory concentration (IC50) is over 10000 nM.

`NC1CCC(NC2CC2c2ccccc2)CC1` (stereo not drawn): the viability, T/C runs as follows: (compound 0.1 µM) 104% [middle of 25 runs]; (compound 0.316 µM) 110% and 108% (2×); (compound 1 µM) 102% [middle of 24 runs]; (compound 3.16 µM) 99.8% [middle of 25 runs]; (compound 10 µM) 91.5% [middle of 23 runs]. The IC50 (compound alone, run of 11/29/2021) is over 10000 nM.

On to `Nc1ncn(C2CC(O)C(CO)O2)c(=O)n1` (stereo not drawn) + NC1CC1c1ccc(-c2cccc(O)c2)cc1, for which the IC50 was 49.3 nM (curve of first compound, second compound 0.1 µM); 49.1 nM (curve of first compound, second compound 0.316 µM); 38.4 nM (curve of first compound, second compound 1 µM); 46 nM (curve of first compound, second compound 3.16 µM); 25.4 nM (curve of first compound, second compound 10 µM). For the same compound, the viability, T/C runs as follows: (second compound 0.1 µM, first compound 0.00316 µM) 90.5%; (second compound 0.1 µM, first compound 0.01 µM) 79.4%; (second compound 0.1 µM, first compound 0.0316 µM) 61.5%; (second compound 0.1 µM, first compound 0.1 µM) 32.8%; (second compound 0.1 µM, first compound 0.316 µM) 19.9%; (second compound 0.1 µM, first compound 1 µM) 13.6%. Further, the viability, T/C (second compound 0.316 µM, first compound 0.00316 µM) is 93.3%; the viability, T/C (second compound 0.316 µM, first compound 0.01 µM) was 83%; the viability, T/C (second compound 0.316 µM, first compound 0.0316 µM) was 62%; the viability, T/C (second compound 0.316 µM, first compound 0.1 µM) is 31.3%; the viability, T/C (second compound 0.316 µM, first compound 0.316 µM) is 17.8%; the viability, T/C (second compound 0.316 µM, first compound 1 µM) is 12.5%. Further, the viability, T/C is 88.5% (second compound 1 µM, first compound 0.00316 µM); 77.5% (second compound 1 µM, first compound 0.01 µM); 53.4% (second compound 1 µM, first compound 0.0316 µM); 30.4% (second compound 1 µM, first compound 0.1 µM); 15.8% (second compound 1 µM, first compound 0.316 µM); 10.8% (second compound 1 µM, first compound 1 µM). Moreover, the viability, T/C runs as follows: (second compound 3.16 µM, first compound 0.00316 µM) 94.6%; (second compound 3.16 µM, first compound 0.01 µM) 78.3%; (second compound 3.16 µM, first compound 0.0316 µM) 61%; (second compound 3.16 µM, first compound 0.1 µM) 32%; (second compound 3.16 µM, first compound 0.316 µM) 15%; (second compound 3.16 µM, first compound 1 µM) 12.4%. In addition, the viability, T/C runs as follows: (second compound 10 µM, first compound 0.00316 µM) 73.5%; (second compound 10 µM, first compound 0.01 µM) 63.7%; (second compound 10 µM, first compound 0.0316 µM) 45.5%; (second compound 10 µM, first compound 0.1 µM) 32.2%; (second compound 10 µM, first compound 0.316 µM) 16.1%; (second compound 10 µM, first compound 1 µM) 11.8%.

As usually defined, the viability, T/C is the ratio of treated to control. By IC50 is commonly meant the concentration at which inhibition is half-maximal.

The values are drawn from PubChem BioAssay AID1918955 (Molecular Pharmacology Branch, DTP, NCI, 2023).
